Source: patent US11026932B2, “Medicinal composition for preventing or treating inflammatory respiratory disease” (NATIONAL UNIVERSITY CORPORATION OKAYAMA UNIVERSITY, priority 2015, dated 2021)

Legend:
[1] = compared to a known RXR full agonist; cited from earlier work
emphysema model mice = test: Emphysema model mice (intratracheal swine pancreatic elastase), evaluation of drug efficacy; assay type: in vivo, female BALB/c mice
Description: <Preparation of Emphysema Mice and Evaluation of Drug Efficacy>
Emphysema mice were prepared in accordance with the following procedures described and used for evaluation of drug efficacy.
Under anesthesia by pentobarbital or isoflurane administration, female BALB/c mice were intratracheally administered with swine pancreatic elastase to prepare (day 0) emphysema models.
Control mice were fed with a food containing bexarotene as an existing RXR full agonist.
On Days 4 and 14, the mice underwent tracheotomy again under anesthesia by pentobarbital or xylazine-ketamine administration, followed by insertion of an endotracheal tube, and static lung compliance was measured using a respiratory function measuring equipment ([…], SIREQ Inc.) for evaluating emphysematous alteration. Static lung compliance is an indication of extensibility of a lung tissue, and static lung compliance is increased in emphysema which is a disease associated with tissue destruction in an alveolar region.
After the procedure 3, the mice were euthanized by exsanguination. After bronchoalveolar lavage, a lung tissue was removed for evaluating emphysema.
The data obtained was analyzed by Anova significance test, in which p<0.05 to an untreated non-emphysema group was indicated by “*”. Furthermore, P<0.05 to an untreated emphysema group was indicated by “#”.

[2] = tested on: bronchial asthma model mice; test: Bronchial asthma model mice (OVA sensitization and inhaled OVA exposure), evaluation of drug efficacy; assay type: in vivo, female BALB/c mice; conditions: compared with the untreated group
Description: <Preparation of Bronchial Asthma Mice and Evaluation of Drug Efficacy>
Bronchial asthma mice were prepared and used for evaluation of drug efficacy in accordance with the following procedures.
Female BALB/c mice were systemically sensitized by intraperitoneal administration of ovalbumin (OVA) ([…] of OVA emulsified in 2.25 mg aluminum hydroxide in a total volume of 100 μL) on Day 0 and Day 14, and then was exposed to inhaled OVA by an ultrasonic nebulizer (for 20 min, 3 days: Days 28 to 30), to induce asthma reaction.
From Day 25, the mice were fed with a food containing an RXR agonist (NEt-4IB). On Day 32, the mice underwent tracheotomy under anesthesia by pentobarbital administration, followed by insertion of an endotracheal tube. After the tube was connected to a respiratory function measuring equipment, an airway hyperreactivity (airway resistance) was determined for evaluating airway constriction.
Forty eight hours after the last OVA inhalation exposure, airway hyperreactivity in the mice with an endotracheal tube was measured using a respiratory function measuring equipment (Flexivent, SIREQ Inc.). Here, airway hyperreactivity was induced by inhalation of methacholine.
After the procedure 2, the mice were euthanized by exsanguination. After bronchoalveolar lavage, a lung tissue was removed for evaluating an airway tissue.
Also, for a group fed with a common food as an untreated group, an asthma reaction was induced in the same way for determination of airway hyperreactivity and evaluation of airway inflammation.
Two groups which were not sensitized by an OVA and only exposed to inhaled OVA as non-asthma control groups (an RXR agonist medicated feed group and a common feed group) were also evaluated for airway hyperreactivity and airway inflammation in the same way.
The data obtained was analyzed by Anova significance test, in which p<0.01 and p<0.05 to an untreated non-asthma group were indicated by “**” and “*”, respectively. Furthermore, P<0.05 to an untreated asthma group was indicated by “#”.

[3] = emphysema model mice, 4 days after elastase administration, compared with drug non-administration group

| SMILES | increase in triglyceride [1] | static lung compliance (emphysema model mice; emphysema model mice fed food containing compound from Day -4, measured Days 4 and 14, compared with the untreated group) | macrophages in cell fraction of bronchoalveolar lavage fluid (emphysema model mice; [3]) | total cell number in cell fraction of bronchoalveolar lavage fluid (emphysema model mice; [3]) | neutrophil number in cell fraction of bronchoalveolar lavage fluid (emphysema model mice; emphysema model mice, 4 days after elastase administration, compared with the untreated group) | effect on bronchoalveolar lavage cell numbers compared with the RXR full agonist bexarotene (emphysema model mice; emphysema model mice, 4 days after elastase administration, total cell number and macrophages) | average interalveolar distance in lung tissue (emphysematous alteration) (emphysema model mice; emphysema model mice, formalin-fixed, HE-stained lung tissue, compared with the untreated group) | anti-inflammatory effect (emphysema model mice; emphysema model or bronchial asthma model, repeated oral administration (summary statement)) | IL-5 in supernatant of bronchoalveolar lavage fluid ([2]; ELISA) | IL-13 in supernatant of bronchoalveolar lavage fluid ([2]; ELISA) | inflammatory cell infiltration in a local site of the airway, histopathological investigation of the lung tissue ([2]; HE staining) | eosinophil number in cell fraction of bronchoalveolar lavage fluid [2] | lymphocyte number in cell fraction of bronchoalveolar lavage fluid [2] | total cell number in cell fraction of bronchoalveolar lavage fluid [2] |
| --- | --- | --- | --- | --- | --- | --- | --- | --- | --- | --- | --- | --- | --- | --- |
| CCN(c1ccc(C(C)C)c(OCC(C)C)c1)c1ccc(C(=O)O)cn1 [NEt-3IB] | reduces increase in triglyceride |  |  |  |  |  |  |  |  |  |  |  |  |  |
| CCN(c1ccc(OCC(C)C)c(C(C)C)c1)c1ccc(C(=O)O)cn1 [NEt-4IB] |  | significant improvement | significantly reduced | significantly reduced | reduction | remarkably higher | improvement in emphysematous alteration | significant anti-inflammatory effect | inhibition | inhibition | improvement in inflammatory cell infiltration | reduction | reduction | reduction |
